# From patent US9433616B2, “Methods and compositions for decreasing saliva production” (priority 2005, dated 2016)
# What was measured:
# [1] = system: muscarinic receptors in the muscles of the eye; details: cited from earlier work
# [2] = system: salivation in patients with Parkinson's disease; details: in vivo; cited from earlier work
# [3] = system: excessive sialorrhea in children with developmental disabilities; details: cited from earlier work
# [4] = system: clozapine-induced sialorrhea; details: in vivo; cited from earlier work
# [5] = system: salivary drying in healthy volunteers; details: in vivo
# Description: The time of first noticeable dryness in the mouth and the time to complete disintegration of the film were noted. Comments about adverse events, taste, and tolerance were also recorded by the participants.
# The secondary aims of this study were to determine: time of first noticeable dryness in the mouth, time to complete disintegration of the film, and the acceptability and tolerance of the bioadhesive buccal films by the subject.
# A blinded randomized crossover study in healthy volunteers.
# In each treatment, the product was blind labeled.
# A thin film was removed from an individually wrapped pouch and placed in the inner cheek opposite the molars nearest to the submandibular gland. It was positioned with the fingers and the mucoadhesive property facilitated its adhesion.
# Dissolve period: the dissolve period of the film was noted. It was defined as the time after which the film was no longer felt in the oral cavity.
# The volunteer recorded the tolerance to the buccal mucosa and overall feel during testing.
# [6] = system: sialorrhea in PD patients; details: human, in vivo
# [7] = system: Parkinson's Disease (PD) patients complaining of sialorrhea; details: human, in vivo, po
# Description: The aim was to assess personal impression by the patients of their sialorrhea symptoms, including, drooling, speech performance, and social interference, as well as the presence of side effects, such as blurred vision, confusion, somnolence, tachycardia, hypotension, or any other discomforting sensation. The patients were evaluated for 2 hours in an outpatient clinic while resting in comfortable armchairs. They rated themselves on a visual analog scale by marking a line representing the amount of disability incurred by their sialorrhea both before and after the treatment by responding to the question: “How would you grade the effect of the drops that you were administered on your sialorrhea?”
# The patients were fluctuating PD patients evaluated in the ON state in the morning, having eaten no food for one hour before the test. […] The patients were instructed to perform some chewing like movements in order to distribute the drug homogeneously. The patients were instructed to fill the visual-analogical scale 1 hour after drug intake. In addition, they were asked about the latency of the effect, if any, and if the effect persisted before leaving.
# [8] = system: dryness of the mouth in human subjects; details: in vivo
# Description: This was an evaluation of the placebo and drug-containing disks conducted in a closed room while sitting and carrying on an otherwise normal conversation.
# No food or drink intake for approximately 2 hours before test. One disk was inserted in the mouth between gum and cheek on the lower right quadrant of mouth.
# All sat in a comfortable room and had not eaten for at least one hour before.
# [9] = system: Parkinson's Disease (PD) patients suffering from sialorrhea; details: human, in vivo
# Source text: They were instructed to apply the drops to their tongues on an as needed basis.
smiles,measurement,setting,value
CN1[C@@H]2CC[C@H]1C[C@@H](OC(=O)C(CO)c1ccccc1)C2 (stereo partly shown) [atropine],time of peak mydriasis effect,[1]; in vivo,30 to 40 min
same,effect after 30 minutes,[2],No effect was noted
same,time results first observed after initial treatment,[2],three
CN(C)CCOC(=O)C(c1ccccc1)C1(O)CCCC1 (stereo not shown) [cyclopentolate],duration of effect,"[1]; eye drops, some effects may persist for up to several days",8 h
"C[N+]1(C)CCC(OC(=O)C(O)(c2ccccc2)C2CCCC2)C1 (stereo not drawn) [glycopyrrolate, 3-(α-cyclopentylmandeloy(osy)-1,1-dimethylpyrrolidinium bromide]",control of excessive sialorrhea,[3],effective
same,treated individuals with substantial adverse systemic side effects requiring discontinuation,[3]; systemic administration,approximately 20%
CC(C)[N+]1(C)[C@@H]2CC[C@H]1C[C@@H](OC(=O)C(CO)c1ccccc1)C2 (stereo partly shown) [ipratropium],clinical response,[4],partial yet clinically meaningful response
same,time until effect of the spray wore off,[4],2 to 8 h
"CCN(Cc1ccncc1)C(=O)C(CO)c1ccccc1 (stereo not shown) [tropicamide, N-ethyl-N-(4-pyridylmethyl) tropamide]",tolerance,[5],acceptable
same,side effects,[6],No side effects were observed
same,"effect on heart rate (tachycardia), confusion, somnolence",[7],"did not affect heart rate (cause tachycardia), confusion, or somnolence"
same,photosensitivity complaints,[7],No complaint of photosensitivity
same,side effects or complications,[7],None of the patients developed side effects or complications
same,time local numbness first noticed,[8]; human,20 min
same,change in pupil size,[8],no obvious change in pupil size
same,taste tolerance,[9],complained of the taste of the medication
